Laboratory results published in ChEMBL document CHEMBL1149359, “Total synthesis and biological evaluation of ustiloxin natural products and two analogs” (Bioorg Med Chem Lett, 2006).

These compounds were tested on CA46 (assay: Cytotoxicity against human CA46 cell line).
Format: functional, cell-based

Going from `CC[C@H](C)[C@@H]([C@@H](CC(=O)N1CCC[C@H]1[C@H](OC)[C@@H](C)C(=O)N[C@@H](Cc1ccccc1)c1nccs1)OC)N(C)C(=O)[C@@H](NC(=O)[C@H](C(C)C)N(C)C)C(C)C` [DOLASTATIN-10] to `CC[C@@]1(C)Oc2cc(c([S+]([O-])C[C@@H](O)C[C@H](N)C(=O)O)cc2O)[C@@H](O)[C@H](NC)C(=O)N[C@@H](C(C)C)C(=O)N[C@@H]1C(=O)NCC(=O)O` (some centres not stated) [USTILOXIN A], the IC50 rises from 0.03 µM to 2.5 µM (83-fold). The first is the more potent here.

These compounds were tested against Tubulin (assay: Inhibition of tubulin polymerization).
Format: protein-complex assay, Homo sapiens

First: CC[C@@]1(C)Oc2cc(ccc2OC)[C@@H](O)[C@H](NC)C(=O)N[C@@H](C(C)C)C(=O)N[C@@H]1C(=O)NCC(=O)O
Second: CC[C@@]1(C)Oc2cc(ccc2O)[C@@H](O)[C@H](NC)C(=O)N[C@@H](C(C)C)C(=O)N[C@@H]1C(=O)NCC(=O)O [USTILOXIN D]
The IC50 of the first is higher: greater than 40 µM for the first, 1.5 µM for the second. The second is the more potent here.

Compared with `CC[C@@]1(C)Oc2cc(ccc2O)[C@@H](O)[C@H](NC)C(=O)N[C@@H](C)C(=O)N[C@@H]1C(=O)NCC(=O)O` [USTILOXIN F], `CC[C@@H](C)[C@@H]1NC(=O)[C@@H](NC)[C@H](O)c2ccc(O)c(c2)O[C@](C)(CC)[C@@H](C(=O)NCC(=O)O)NC1=O` is 1.7-fold lower in IC50: 8.2 µM for the first, 4.8 µM for the second.

For `CC[C@@]1(C)Oc2cc(c([S+]([O-])C[C@@H](O)C[C@H](N)C(=O)O)cc2O)[C@@H](O)[C@H](NC)C(=O)N[C@@H](C(C)C)C(=O)N[C@@H]1C(=O)NCC(=O)O` (some centres not stated) [USTILOXIN A], the IC50 was 1.1 µM.
